Assay results as given in paper PMC12095040, “GRK5 is required for adipocyte differentiation through ERK activation” (International Journal of Obesity (2005), 2024).

Target: GRK5 (Homo sapiens, UniProt P34947)
Assay: ADP-Glo luminescent kinase assay, casein substrate, […] ATP
Assay type: biochemical

Chain of GRK5 (P34947 whole entry): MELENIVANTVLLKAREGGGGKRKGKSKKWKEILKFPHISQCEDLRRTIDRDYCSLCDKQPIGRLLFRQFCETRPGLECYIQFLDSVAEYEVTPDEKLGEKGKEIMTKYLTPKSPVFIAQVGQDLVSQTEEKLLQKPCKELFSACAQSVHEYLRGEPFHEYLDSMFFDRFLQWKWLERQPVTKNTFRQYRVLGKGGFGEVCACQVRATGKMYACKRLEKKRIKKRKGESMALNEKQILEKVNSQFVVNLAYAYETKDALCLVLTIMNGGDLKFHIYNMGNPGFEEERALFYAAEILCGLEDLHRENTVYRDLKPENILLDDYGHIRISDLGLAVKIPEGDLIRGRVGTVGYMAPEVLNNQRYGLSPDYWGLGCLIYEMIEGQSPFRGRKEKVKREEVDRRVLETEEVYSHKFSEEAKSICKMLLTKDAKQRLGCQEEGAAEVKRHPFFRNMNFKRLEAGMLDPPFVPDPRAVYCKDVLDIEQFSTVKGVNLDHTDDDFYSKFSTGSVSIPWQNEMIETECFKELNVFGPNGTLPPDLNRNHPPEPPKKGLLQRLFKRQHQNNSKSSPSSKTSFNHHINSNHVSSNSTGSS

IC50: 49.7 µM
Structure (SMILES): COc1cc(Nc2cc3c(cn2)nc(-c2ccco2)n3C)cc(OC)c1OC [GRK5-IN-2]
